A short description of assay [1]: P. falciparum Dd2 growth inhibitors, dose response, SYBR Green, cherry-picked samples (AID 1159567). The assay is classed as functional, cell-based.
Assay [2] has as its target T1, Zinc finger protein mex-5 (Caenorhabditis elegans, UniProt Q9XUB2).
T1 sequence (Q9XUB2 whole entry): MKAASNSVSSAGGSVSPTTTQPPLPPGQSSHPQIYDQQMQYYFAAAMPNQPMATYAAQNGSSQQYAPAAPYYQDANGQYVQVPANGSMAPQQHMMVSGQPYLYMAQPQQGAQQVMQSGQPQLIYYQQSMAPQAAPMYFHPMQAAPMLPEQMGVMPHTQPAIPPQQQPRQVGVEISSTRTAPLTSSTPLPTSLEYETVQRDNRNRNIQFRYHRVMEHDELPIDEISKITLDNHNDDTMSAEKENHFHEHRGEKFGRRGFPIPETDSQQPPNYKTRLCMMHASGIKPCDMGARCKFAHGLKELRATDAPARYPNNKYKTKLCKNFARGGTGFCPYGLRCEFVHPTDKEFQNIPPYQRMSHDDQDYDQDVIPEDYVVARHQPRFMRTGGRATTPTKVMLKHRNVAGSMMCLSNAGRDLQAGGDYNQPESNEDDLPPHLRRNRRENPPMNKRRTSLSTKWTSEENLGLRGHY
The assay can be described thus: potency of MEX-5 RNA-binding blockers – biochemical, C. elegans, fluorescence polarization, dose response (AID 1960).

Assay [3] concerns the target T2, RNA-binding protein pos-1 (Caenorhabditis elegans, UniProt G5EF15).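 Also: purified POS-1 fused to maltose binding protein made in E. coli; potency of compounds blocking POS-1 binding to fluorescent RNA.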
T2 sequence (G5EF15 whole entry): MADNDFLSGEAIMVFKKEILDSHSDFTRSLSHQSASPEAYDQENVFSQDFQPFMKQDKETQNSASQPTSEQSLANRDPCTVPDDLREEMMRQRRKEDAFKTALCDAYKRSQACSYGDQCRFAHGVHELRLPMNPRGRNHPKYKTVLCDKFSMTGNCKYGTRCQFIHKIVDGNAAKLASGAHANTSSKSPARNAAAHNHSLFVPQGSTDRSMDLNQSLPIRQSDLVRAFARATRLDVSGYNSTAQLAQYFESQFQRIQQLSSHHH
The assay can be described thus: disruptors of C. elegans POS-1 RNA interaction – biochemical, fluorescence polarization, dose response (AID 1964). (In general: Fluorescence polarisation rises when a labelled molecule tumbles more slowly, as on binding a larger partner.)

Assay [4] addresses T3, Protein skinhead-1 (Caenorhabditis elegans, UniProt P34707).
T3 sequence (P34707 whole entry): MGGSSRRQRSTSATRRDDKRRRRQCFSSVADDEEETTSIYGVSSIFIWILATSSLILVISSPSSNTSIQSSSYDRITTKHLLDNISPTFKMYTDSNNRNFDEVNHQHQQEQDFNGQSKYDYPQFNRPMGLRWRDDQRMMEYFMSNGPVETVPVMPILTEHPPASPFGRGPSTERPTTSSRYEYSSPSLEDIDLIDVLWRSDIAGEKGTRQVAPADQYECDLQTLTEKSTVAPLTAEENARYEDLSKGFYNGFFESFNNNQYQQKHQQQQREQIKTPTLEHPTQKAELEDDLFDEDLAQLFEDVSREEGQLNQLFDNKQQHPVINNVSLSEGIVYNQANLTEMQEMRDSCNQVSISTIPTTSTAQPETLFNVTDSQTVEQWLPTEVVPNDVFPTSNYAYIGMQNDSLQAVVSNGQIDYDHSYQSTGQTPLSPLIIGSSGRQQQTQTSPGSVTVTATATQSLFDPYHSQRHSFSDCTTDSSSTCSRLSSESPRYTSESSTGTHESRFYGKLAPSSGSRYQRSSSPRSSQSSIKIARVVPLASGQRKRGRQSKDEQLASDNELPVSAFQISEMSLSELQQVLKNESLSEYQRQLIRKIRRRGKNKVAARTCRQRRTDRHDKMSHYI
Format: functional.

Assay [5] deals with Cytochrome P450 2C9 (Homo sapiens, UniProt P11712).
Assay [6] deals with T4, Cytochrome P450 1A2 (Homo sapiens, UniProt P05177).
T4 sequence (P05177 whole entry): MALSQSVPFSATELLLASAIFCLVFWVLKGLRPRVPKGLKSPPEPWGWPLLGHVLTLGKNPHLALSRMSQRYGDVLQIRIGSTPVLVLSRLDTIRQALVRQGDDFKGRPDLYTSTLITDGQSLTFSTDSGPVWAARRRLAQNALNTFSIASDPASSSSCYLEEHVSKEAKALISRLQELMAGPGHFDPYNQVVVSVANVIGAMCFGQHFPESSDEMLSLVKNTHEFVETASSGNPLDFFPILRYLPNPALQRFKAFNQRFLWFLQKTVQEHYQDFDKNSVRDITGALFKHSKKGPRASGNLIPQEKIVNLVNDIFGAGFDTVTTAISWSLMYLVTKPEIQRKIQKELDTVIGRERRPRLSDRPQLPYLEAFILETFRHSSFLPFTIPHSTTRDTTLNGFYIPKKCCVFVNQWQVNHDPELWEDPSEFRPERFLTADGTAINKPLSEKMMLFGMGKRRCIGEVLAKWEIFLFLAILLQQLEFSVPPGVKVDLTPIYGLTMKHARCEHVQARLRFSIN

Assay [7] addresses Cytochrome P450 2C19 (Homo sapiens, UniProt P33261). Description: Cytochrome panel assay with activity outcomes. Panel member name: p450-cyp2c19 Compounds with AC50 equal or less than 10 uM are considered active. The assay is classed as functional. To be noted: read-out: AC50.
The test system of assay [8] is INS1. The assay can be described thus: INS-1E survival protection against cytokine death – cell-based, luminescence, retest, dose response (AID 449756).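 Also: cell death triggered by IL-1 beta plus TNF-alpha plus IFN-gamma mixture; protective hits raise ATP signal compared with cytokine alone wells.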 The following applies: Rattus norvegicus. The assay is classed as functional.
The nature of assay [9]: Luminescence Cell-Based Dose Confirmation HTS to Identify Activators of 5'UTR Stem-Loop Driven Alpha-Synuclein mRNA Translation in H4 Neuroglioblastoma Cells. [Related pubchem assays: 1829 (Project Summary), 1814 (Primary HTS)]. The assay is classed as functional.
Assay [10] is described as follows: Luminescence Cell-Based Dose Response HTS to Identify Activators of Luciferase Translation or Activity in H4 […] Cells. [Related pubchem assays: 1829 (Project Summary), 1814 (Primary HTS)]. The assay is classed as functional.
The target in assay [11] is T5, Rac GTPase-activating protein 1 (Homo sapiens, UniProt Q9H0H5).
T5 sequence (Q9H0H5 whole entry): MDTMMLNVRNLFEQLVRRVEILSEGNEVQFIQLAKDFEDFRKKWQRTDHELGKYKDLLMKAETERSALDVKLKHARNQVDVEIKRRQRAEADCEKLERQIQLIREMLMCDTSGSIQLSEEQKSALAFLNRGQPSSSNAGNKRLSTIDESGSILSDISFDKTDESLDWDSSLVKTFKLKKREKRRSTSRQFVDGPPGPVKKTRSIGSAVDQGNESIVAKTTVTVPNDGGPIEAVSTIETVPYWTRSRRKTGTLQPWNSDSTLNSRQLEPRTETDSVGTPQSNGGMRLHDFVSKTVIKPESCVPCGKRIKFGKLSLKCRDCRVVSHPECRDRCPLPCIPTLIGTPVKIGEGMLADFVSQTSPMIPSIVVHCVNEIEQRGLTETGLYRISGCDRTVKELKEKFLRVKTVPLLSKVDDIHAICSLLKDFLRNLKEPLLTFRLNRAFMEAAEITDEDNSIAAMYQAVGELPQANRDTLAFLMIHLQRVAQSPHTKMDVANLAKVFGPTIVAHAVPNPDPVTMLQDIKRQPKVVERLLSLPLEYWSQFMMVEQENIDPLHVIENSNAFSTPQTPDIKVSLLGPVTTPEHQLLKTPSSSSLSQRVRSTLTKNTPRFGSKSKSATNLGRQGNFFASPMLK
The assay can be described thus: blockers of MgcRacGAP-driven Rac1 GTP hydrolysis – biochemical, ADP Hunter fluorescence, primary and confirmatory, confirmation (AID 624330). Format: functional.

The AC50 is the midpoint of the concentration-response curve, whichever way the signal moves. One may read the EC50 as the midpoint of the concentration-response curve. Broadly, the IC50 is the point on the concentration scale where inhibition reaches its midpoint.

Active and inactive are the calls of the source.

Cytochrome P450 2C19, sequence (P33261 whole entry): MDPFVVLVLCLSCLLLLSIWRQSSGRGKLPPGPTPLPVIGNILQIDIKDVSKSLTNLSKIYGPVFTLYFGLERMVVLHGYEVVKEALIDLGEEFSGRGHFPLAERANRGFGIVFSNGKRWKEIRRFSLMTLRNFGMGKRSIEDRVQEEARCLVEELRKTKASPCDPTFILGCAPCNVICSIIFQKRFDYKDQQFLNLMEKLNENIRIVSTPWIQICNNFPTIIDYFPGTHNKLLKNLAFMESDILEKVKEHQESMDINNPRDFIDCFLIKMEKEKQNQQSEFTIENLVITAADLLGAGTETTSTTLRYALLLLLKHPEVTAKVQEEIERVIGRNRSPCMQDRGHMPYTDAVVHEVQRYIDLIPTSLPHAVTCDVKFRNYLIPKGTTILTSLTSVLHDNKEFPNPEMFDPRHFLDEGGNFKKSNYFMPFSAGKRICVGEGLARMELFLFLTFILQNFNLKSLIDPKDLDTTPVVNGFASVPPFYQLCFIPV
Cytochrome P450 2C9, sequence (P11712 whole entry): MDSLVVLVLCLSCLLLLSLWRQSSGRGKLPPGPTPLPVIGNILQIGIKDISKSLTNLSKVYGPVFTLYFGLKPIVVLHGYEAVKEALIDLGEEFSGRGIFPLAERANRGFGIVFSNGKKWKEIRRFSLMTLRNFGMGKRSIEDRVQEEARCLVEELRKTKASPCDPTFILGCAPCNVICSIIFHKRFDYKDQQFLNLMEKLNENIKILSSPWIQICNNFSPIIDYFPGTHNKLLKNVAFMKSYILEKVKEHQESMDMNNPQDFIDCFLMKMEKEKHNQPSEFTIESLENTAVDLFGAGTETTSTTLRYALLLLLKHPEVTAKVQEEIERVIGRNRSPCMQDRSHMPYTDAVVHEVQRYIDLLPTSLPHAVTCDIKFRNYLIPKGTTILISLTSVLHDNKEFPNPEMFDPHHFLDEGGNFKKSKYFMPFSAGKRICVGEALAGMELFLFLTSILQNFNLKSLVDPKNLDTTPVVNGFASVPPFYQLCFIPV

On to `COc1ccccc1-c1ccc([C@@H]2[C@@H](CO)N3CCCCN(C(=O)c4ccncc4)C[C@@H]23)cc1`, for which, in assay [1], the half-maximal activity concentration (AC50) was 14.1 µM (active).

For `C=CCOc1ccc(C2OC34CCCCC3C(C#N)(C#N)C2(C#N)C(=N)O4)cc1` (stereo not drawn), the EC50 in assay [2] is 9.41 µM (active); in [3], 12.5 µM (active). As for `Cc1ccc(-c2ccccc2)n1-c1ccc(C(=O)O)cc1`, the EC50 in assay [2] and in [3] was > 300 µM (not active) each time. Take `CCCn1nc2cc(C(=O)NCc3ccc(OC(F)(F)F)cc3)ccc2c1OCC`: the concentration for half-maximal inhibition (IC50) in assay [4] is 16.4 µM (active). With `CCN(CC(=O)Nc1ccccc1C(F)(F)F)C(=O)c1ccc(NC(=O)c2cccs2)cc1`, in assay [4], the IC50 is > 100 µM (inactive). In the case of `O=C(O)CCCCCNC(=O)c1ccncc1`, the AC50 is 25.1 µM (inconclusive) in assay [5], 0.01 µM (inconclusive) in assay [6] and 39.8 µM (inconclusive) in [7]. Take `CCNC(=O)CC1C(=O)N(c2ccc(F)cc2)C(=O)N1CCc1ccc(OC)cc1` (stereo not drawn): the figures for the half-maximal activity concentration (AC50) in assay [5] and in [7] were 0.282 µM (inconclusive) and 8.91 µM (inconclusive), respectively. `COc1nnc(-c2ccc(N3CCCCC3)c(NC(=O)C3CCCCC3)c2)c2ccccc12`: the AC50 in assay [8] was 6.09 µM (active). For `COCC(=O)Nc1ccc2c(c1)C(=O)N(C)C[C@H](OC)[C@H](C)CN(Cc1cc(F)ccc1F)[C@H](C)CO2`, the concentration at half-maximal activity (AC50) in [1] is 3.74 µM (active).

Regarding `O=C(CSc1nnc(CN2CCOCC2)n1-c1ccc(Cl)cc1)N1CCc2ccccc21`, the IC50 in assay [4] is > 100 µM (inactive). For the compound `CC(C)c1cccc(C(C)C)c1OC(=O)[C@H]1OC(C(C)(C)C)=C[C@@H]1c1ccccc1`, in [8], the concentration at half-maximal activity (AC50) was 7.46 µM (active). Turning to `COC(=O)c1ccc(Nc2cc(C)nc3ncnn23)cc1`, in assay [4], the IC50 is > 100 µM (inactive). Regarding `CC(=O)n1c(/C=N/c2ccccc2)c(O)c2ccccc21`, the EC50 in assay [2] and in [3] was > 300 µM (not active) throughout. With `O=C(c1cccnc1)C1Cc2ccccc2C1=O` (stereo not drawn), in [4], the IC50 was > 100 µM (inactive). On to `c1ccc(-c2noc(-c3cccc4ccccc34)n2)cc1`, for which the IC50 in assay [4] is 18.8 µM (active). As to `O=C(Nc1cc(-c2ccccc2)nn1C1CCCCC1)c1ccc(Cl)cc1`, the AC50 in assay [8] was 5.2 µM (active).

Regarding `CCCCn1nnnc1NCc1ccc(C)s1`, in assay [4], the IC50 is > 100 µM (inactive). On to `COc1cc(C2C3CN(C)CC=C3C(C#N)=C(N)C2(C#N)C#N)ccc1OC(C)C` (stereo not drawn), for which the values for the EC50 in assay [2] and in [3] were 31.3 µM (active) and > 300 µM (inconclusive), respectively.

With `O=C(C[C@@H]1C[C@H]2c3cc(NS(=O)(=O)c4ccc(F)cc4)ccc3O[C@H]2[C@H](CO)O1)N1CCc2ccccc2C1`, the AC50 in [1] was 9.73 µM (active). For the compound `Clc1ccc(OCCCCCN2CCOCC2)cc1`, the IC50 in assay [4] was 53.9 µM (inactive).

`CCCNC(=O)N1[C@H](C#N)[C@@H](c2ccccc2C2=CCCC2)[C@@H]1CO`: in assay [1], the AC50 was 7.07 µM (active). Consider `COc1ccccc1-c1cnn2c(NCc3ccccc3)cc(C)nc12`, for which the half-maximal effective concentration (EC50) in [2] and in assay [3] was > 300 µM (not active) each time. Take `COc1cc(CC(=O)OC2CCOC2=O)cc(OC)c1OC` (stereo not drawn): the AC50 in assay [5] is 39.8 µM (inconclusive); in assay [7] it was 8.91 µM (inconclusive).

`O=C(CN1C(=O)NC2(CCCCCC2)C1=O)c1ccc2c(c1)OCCO2`: the concentration for a half-maximal effect (EC50) in assay [9] was 4.64 µM (active); in assay [10], 0.676 µM (active). As to `Cc1ccccc1/C=C1\CCCc2ccccc2C1=O`, the half-maximal effective concentration (EC50) is 0.172 µM (active) in assay [9] and 0.328 µM (active) in assay [10].

For the compound `CCC(=O)c1ccc(OCC(O)CN2CCN(S(=O)(=O)N3CCCCC3)CC2)cc1` (stereo not drawn), in assay [4], the IC50 is > 100 µM (inactive). `O=C(C1=C[C@@H](c2ccc(C(F)(F)F)cc2)C[C@@H](OCCCCO)O1)N1CCN(Cc2ccccc2)CC1`: in assay [8], the concentration at half-maximal activity (AC50) was 5.94 µM (active). `Cc1ccc(NC(=O)CSCc2cc(=O)n3ccsc3n2)cc1`: the IC50 in [4] is > 100 µM (inactive). Turning to `COc1ccc([C@H]2CC(=O)C=C(c3ccnc4ccc(Cl)cc34)C2)cc1`, the AC50 in assay [8] was 2.64 µM (active). As to `O=C(N/N=C\c1cc([N+](=O)[O-])ccc1N1CCCC1)c1ccccn1`, the half-maximal effective concentration (EC50) is 70.5 µM (inconclusive) in assay [2] and 149 µM (inconclusive) in [3]. In the case of `CC1(OC(=O)c2cccs2)C(=O)C=C2C=C(c3ccc(C#N)cc3)OC=C2C1=O` (stereo not drawn), the EC50 in assay [2] was 31.3 µM (active); in assay [3] it was 93.2 µM (active).

For the compound `Cc1oc(-c2ccccc2)cc1C(=O)Nc1ccc(N(C)C)cc1`, the AC50 in assay [5] is 25.1 µM (inconclusive). The IC50 in assay [11] was 62.3 µM (active). As for `CCN(CC)c1nc(C)nc2c1cnn2CCc1ccccc1`, the figures for the 50% effective concentration (EC50) in [9] and in assay [10] were 85.2 µM (active) and 92.1 µM (active), respectively.

For the origin of these results see ChEMBL document CHEMBL1201862, “PubChem BioAssay data set” (2004).
